Reference: patent publication US20150126467A1, “USE OF ALGINATE OLIGOMERS TO ENHANCE THE EFFECTS OF ANTIFUNGAL AGENTS” (AlgiIPharma AS, priority 2011, published 2015)

What was measured:
[1] = tested on: C. krusei 141/03 (candidosis); assay: Robotic MIC assay, Candida strains (Example 2); type: cell-based; details: 48 h, Mueller-Hinton broth
Method: (§1) A robotic MIC Assay was performed as follows. OligoG CF-5/20 were dissolved in medium (Mueller-Hinton broth or M19 broth depending on experiment) to 1.25 times of the desired assay concentrations (2, 6 and 10%). The antifungal agents under test were dissolved in medium without OligoG CF-5/20 and in medium with OligoG CF-5/20 at a concentration of 1.25 times the highest desired assay concentrations. For experiments where the effect of adding different concentrations of Na^+ was investigated, NaCl was dissolved in medium to the desired concentrations (10, 30 and 50 mM).
(§2) Two-fold serial dilutions of antifungal agents were made in medium with different concentrations of OligoG CF-5/20, and the solutions were placed in four parallel wells in Nunc 384-well micro plates (30 μl per well in Nunc 242757 microplates). A group of 8 wells with no addition of antifungal agents for each OligoG CF-5/20 concentration was included on each microplate as growth reference. To each well in the 384-well assay plates was added 7.5 μl of medium inoculated with a frozen stock culture of Candida albicans (strain CCUG 39343).
(§3) The micro plates were placed in plastic bags and incubated without shaking at 34° C. The optical density at 600 nm in the microwells was measured after approximately 13, 18, 24 and 34 hours of incubation, and the relative growth yield in each well was calculated based on the growth in the reference groups.
(§4) The robotic assay described in Example 1 was employed in this Example. Strains were grown in Mueller-Hinton broth (LAB114 from Lab M Limited) and MIC values (μg ml-1) were determined for each antifungal after incubation for 48 h in the presence of 0, 2, 6 and 10% OligoG CF-5/20 G-fragments. […] OligoG CF-5/20 G-fragments were provided by AlgiPharma AS, Norway.
(§5) Candida strains used were as follows: • C. albicans CCUG 39343 (strain from culture collection) • C. parapsillosis ATCC 22019T (strain from culture collection) • C. krusei 141/03 (candidosis) • C. krusei 249/03(2) (ulceration) • C. lusitaniae 994/01(2) (candidosis) • C. tropicalis 12 (vaginal) • C. tropicalis 75 (vaginal) • C. tropicalis 519468 (urinary) • C. tropicalis 544123 (urinary) • C. tropicalis 250/03 (candidosis) • C. tropicalis AG1 (oral) • C. tropicalis T2.2 (oral)

[2] = tested on: C. tropicalis 12 (vaginal); assay: Robotic MIC assay, Candida strains (Example 2); type: cell-based; details: 48 h, Mueller-Hinton broth
Method: as §1, §2, §3, §4, §5

[3] = tested on: C. tropicalis 250/03 (candidosis); assay: Robotic MIC assay, Candida strains (Example 2); type: cell-based; details: C. tropicalis 250/03 Candiosis, 48 h, Mueller-Hinton broth
Method: as §1, §2, §3, §4, §5

[4] = tested on: C. tropicalis 519468 (urinary); assay: Robotic MIC assay, Candida strains (Example 2); type: cell-based; details: 48 h, Mueller-Hinton broth
Method: as §1, §2, §3, §4, §5

[5] = tested on: C. tropicalis 544123 (urinary); assay: Robotic MIC assay, Candida strains (Example 2); type: cell-based; details: 48 h, Mueller-Hinton broth
Method: as §1, §2, §3, §4, §5

[6] = tested on: C. tropicalis 75 (vaginal); assay: Robotic MIC assay, Candida strains (Example 2); type: cell-based; details: 48 h, Mueller-Hinton broth
Method: as §1, §2, §3, §4, §5

C. tropicalis AG1 (oral) = assay: Robotic MIC assay, Candida strains (Example 2); type: cell-based; details: 48 h, Mueller-Hinton broth
Method: as §1, §2, §3, §4, §5

[7] = tested on: C. tropicalis T2.2 (oral); assay: Robotic MIC assay, Candida strains (Example 2); type: cell-based; details: 48 h, Mueller-Hinton broth
Method: as §1, §2, §3, §4, §5

[8] = tested on: C. parapsillosis ATCC 22019T; assay: Robotic MIC assay, Candida strains (Example 2); type: cell-based, Candida parapsilosis; details: 48 h, Mueller-Hinton broth
Method: as §1, §2, §3, §4, §5

[9] = tested on: Cryptococcus neoformans CCUG 23451; assay: Robotic MIC assay, Cryptococcus neoformans (Example 6); type: cell-based
Method: Cryptococcus sp. was grown at 30° C. for 96 h on YM-agar. Spores and aerial mycelium was cut out from the agar, suspended in 1 ml YM-broth and dispersed with glass beads (1 mm) in a mini bead beater for 2 min. The suspension was added glycerol to 10% and frozen at −80° C. Each batch of frozen stock culture was then characterized in separate growth experiments using Mueller-Hinton and RPMI to determine the minimum amount of inoculum giving satisfactory growth after 48 h under the conditions relevant for the MIC assay. This inoculum procedure is used in order to reduce day to day variation in bioassays.
Robotic minimum inhibitory concentration (MIC) assay was performed as follows. OligoG CF-5/20 was dissolved in medium (Mueller-Hinton, RPMI with 2% glucose, Sabouraud or YM) to 1.25 times of the desired assay concentrations (2, 6 and 10%). […].
Two-fold serial dilutions of antifungal agents were made in medium with different concentrations of OligoG CF-5/20, and the solutions were placed in four parallel wells in Nunc 384-well micro plates (30 μl per well in Nunc 242757 microplates). A group of 8 wells with no addition of antifungal agents for each OligoG CF-5/20 concentration was included on each micro plate as growth reference. Each well in the 384-well assay plates was added 7.5 μl of the medium innoculated with frozen stock culture of the relevant strains.
The microplates were placed in plastic bags and incubated without shaking at 34° C. The optical density at 600 nm in the microwells was measured after certain time points from 24 h to 96 h of incubation. […]

SMILES: C[C@@H]1[C@H](O)[C@@H](C)/C=C/C=C/CC/C=C/C=C/C=C/C=C/C(O[C@H]2O[C@H](C)[C@@H](O)[C@H](N)[C@@H]2O)CC2O[C@](O)(CC(O)C(O)CCC(O)CC(O)CC(O)CC(=O)O[C@H]1C)CC(O)C2C(=O)O (stereo partly shown) [Nystatin, nystatin]
- Minimum Inhibitory Concentration (MIC) ([1]; 0% OligoG): 8 µg/mL
- Minimum Inhibitory Concentration (MIC) ([1]; 2% OligoG): 4 µg/mL
- Minimum Inhibitory Concentration (MIC) ([1]; 6% OligoG): 2 µg/mL
- Minimum Inhibitory Concentration (MIC) ([1]; 10% OligoG): 2 µg/mL
- Minimum Inhibitory Concentration (MIC) ([2]; 0% OligoG): 8 µg/mL
- Minimum Inhibitory Concentration (MIC) ([2]; 2% OligoG): 8 µg/mL
- Minimum Inhibitory Concentration (MIC) ([2]; 6% OligoG): 4 µg/mL
- Minimum Inhibitory Concentration (MIC) ([2]; 10% OligoG): 4 µg/mL
- Minimum Inhibitory Concentration (MIC) ([3]; 0% OligoG): 8 µg/mL
- Minimum Inhibitory Concentration (MIC) ([3]; 2% OligoG): 4 µg/mL
- Minimum Inhibitory Concentration (MIC) ([3]; 6% OligoG): 2 µg/mL
- Minimum Inhibitory Concentration (MIC) ([3]; 10% OligoG): 1 µg/mL
- Minimum Inhibitory Concentration (MIC) ([4]; 0% OligoG): 16 µg/mL
- Minimum Inhibitory Concentration (MIC) ([4]; 2% OligoG): 8 µg/mL
- Minimum Inhibitory Concentration (MIC) ([4]; 6% OligoG): 4 µg/mL
- Minimum Inhibitory Concentration (MIC) ([4]; 10% OligoG): 2 µg/mL
- Minimum Inhibitory Concentration (MIC) ([5]; 0% OligoG): 8 µg/mL
- Minimum Inhibitory Concentration (MIC) ([5]; 2% OligoG): 8 µg/mL
- Minimum Inhibitory Concentration (MIC) ([5]; 6% OligoG): 2 µg/mL
- Minimum Inhibitory Concentration (MIC) ([5]; 10% OligoG): 2 µg/mL
- Minimum Inhibitory Concentration (MIC) ([6]; 0% OligoG): 8 µg/mL
- Minimum Inhibitory Concentration (MIC) ([6]; 2% OligoG): 8 µg/mL
- Minimum Inhibitory Concentration (MIC) ([6]; 6% OligoG): 8 µg/mL
- Minimum Inhibitory Concentration (MIC) ([6]; 10% OligoG): 2 µg/mL
- Minimum Inhibitory Concentration (MIC) (C. tropicalis AG1 (oral); 0% OligoG): 8 µg/mL
- Minimum Inhibitory Concentration (MIC) (C. tropicalis AG1 (oral); 2% OligoG): 8 µg/mL
- Minimum Inhibitory Concentration (MIC) (C. tropicalis AG1 (oral); 6% OligoG): 4 µg/mL
- Minimum Inhibitory Concentration (MIC) (C. tropicalis AG1 (oral); 10% OligoG): 2 µg/mL
- Minimum Inhibitory Concentration (MIC) ([7]; 0% OligoG): 8 µg/mL
- Minimum Inhibitory Concentration (MIC) ([7]; 2% OligoG): 8 µg/mL
- Minimum Inhibitory Concentration (MIC) ([7]; 6% OligoG): 4 µg/mL
- Minimum Inhibitory Concentration (MIC) ([7]; 10% OligoG): 2 µg/mL
- Minimum Inhibitory Concentration (MIC) ([8]; 0% OligoG): 4 µg/mL
- Minimum Inhibitory Concentration (MIC) ([8]; 2% OligoG): 2 µg/mL
- Minimum Inhibitory Concentration (MIC) ([8]; 6% OligoG): 1 µg/mL
- Minimum Inhibitory Concentration (MIC) ([8]; 10% OligoG): 0.5 µg/mL
- Minimum Inhibitory Concentration (MIC) ([9]; MH, 0% OligoG, 96 hours): 4 µg/mL
- Minimum Inhibitory Concentration (MIC) ([9]; MH, 2% OligoG, 96 hours): 1 µg/mL
- Minimum Inhibitory Concentration (MIC) ([9]; RPMI 2% GLU, 0% OligoG, 72 hours): 8 µg/mL
- Minimum Inhibitory Concentration (MIC) ([9]; RPMI 2% GLU, 0% OligoG, 96 hours): 8 µg/mL
- Minimum Inhibitory Concentration (MIC) ([9]; RPMI 2% GLU, 2% OligoG, 72 hours): 8 µg/mL
- Minimum Inhibitory Concentration (MIC) ([9]; RPMI 2% GLU, 2% OligoG, 96 hours): 8 µg/mL
- Minimum Inhibitory Concentration (MIC) ([9]; RPMI 2% GLU, 6% OligoG, 72 hours): 4 µg/mL
- Minimum Inhibitory Concentration (MIC) ([9]; RPMI 2% GLU, 6% OligoG, 96 hours): 8 µg/mL
- Minimum Inhibitory Concentration (MIC) ([9]; Sabouraud, 0% OligoG, 72 hours): 2 µg/mL
- Minimum Inhibitory Concentration (MIC) ([9]; Sabouraud, 0% OligoG, 96 hours): 2 µg/mL
- Minimum Inhibitory Concentration (MIC) ([9]; Sabouraud, 2% OligoG, 72 hours): 0.5 µg/mL
- Minimum Inhibitory Concentration (MIC) ([9]; Sabouraud, 2% OligoG, 96 hours): 0.5 µg/mL
- Minimum Inhibitory Concentration (MIC) ([9]; Sabouraud, 6% OligoG, 72 hours): 0.25 µg/mL
- Minimum Inhibitory Concentration (MIC) ([9]; Sabouraud, 6% OligoG, 96 hours): 0.25 µg/mL
- Minimum Inhibitory Concentration (MIC) ([9]; YM, 0% OligoG, 72 hours): 8 µg/mL
- Minimum Inhibitory Concentration (MIC) ([9]; YM, 0% OligoG, 96 hours): 16 µg/mL
- Minimum Inhibitory Concentration (MIC) ([9]; YM, 2% OligoG, 72 hours): 4 µg/mL
- Minimum Inhibitory Concentration (MIC) ([9]; YM, 2% OligoG, 96 hours): 8 µg/mL
- effect on MIC when OligoG is added to the medium ([9]; media: RPMI with 2% glucose, MH, Sabouraud, YM): reduction in MIC in all media tested
